Ki and inhibition data for 22 compounds are collected here from US9181236B2, “2-spiro-substituted iminothiazines and their mono-and dioxides as bace inhibitors, compositions and their use” (Merck Sharp & Dohme Corp., priority 2011, dated 2015).

Assay [1] concerns the target soluble human BACE1 catalytic domain (Homo sapiens (Human), UniProt P56817). The assay can be described thus: BACE1 HTRF FRET Assay. The assay is classed as biochemical. The conditions noted are these: for Ki: Ki calculated from IC50 using the Cheng-Prusoff equation; for inhibition at 1 µM: read-out: BACE1 % Inh. at 1 μM. The source says: A homogeneous time-resolved FRET assay can be used to determine IC50 values for inhibitors of the soluble human BACE1 catalytic domain. This assay monitors the increase of 620 nm fluorescence that resulted from BACE1 cleavage of an APPswedish APP^swe mutant peptide FRET substrate (QSY7-[…]-Europium-amide). This substrate contains an N-terminal QSY7 moiety that serves as a quencher of the C-terminal Europium fluorophore (620 nm Em). In the absence of enzyme activity, 620 nm fluorescence is low in the assay and increased linearly over 3 hours in the presence of uninhibited BACE1 enzyme Inhibition of BACE1 cleavage of the QSY7-APP^swe-Eu substrate by inhibitors is manifested as a suppression of 620 nm fluorescence.
Reactions are initiated by addition of 10 μl of 600 nM QSY7-APP^swe-Eu substrate (200 nM final) to give a final reaction volume of 30 μl in a 384 well Nunc HTRF plate. The reactions are incubated at 30° C. for 1.5 hours. The 620 nm fluorescence is then read on a Rubystar HTRF plate reader (BMG Labtechnologies) using a 50 millisecond delay followed by a 400 millisecond acquisition time window Inhibitor IC50 values are derived from non-linear regression analysis of concentration response curves.

The target in assay [2] is purified human autoBACE-2 (Homo sapiens (Human), UniProt Q9Y5Z0). Kind of assay: BACE-2 Assay (BACE-HTRF assay). It counts as biochemical. As to conditions: Ki calculated from IC50 using the Cheng-Prusoff equation; read-out: BACE2 Ki. The method, then:
Inhibitor IC50s at purified human autoBACE-2 are determined in a time-resolved endpoint proteolysis assay that measures hydrolysis of the QSY7-[…]-Eu-amide FRET peptide substrate (BACE-HTRF assay). […] DMSO is present at 5% final concentration in the assay. Following laser excitation of sample wells at 320 nm, the fluorescence signal at 620 nm is collected for 400 ms following a 50 μs delay on a RUBYstar HTRF plate reader (BMG Labtechnologies). Raw RFU data is normalized to maximum (1.0 nM BACE/DMSO) and minimum (no enzyme/DMSO) RFU values. […] The Ki values are calculated from the IC50 using the Cheng-Prusoff equation.

A value given as a limit tells only on which side of the number the result lay.

purified human autoBACE-2, sequence (Q9Y5Z0 63-473 limits assumed): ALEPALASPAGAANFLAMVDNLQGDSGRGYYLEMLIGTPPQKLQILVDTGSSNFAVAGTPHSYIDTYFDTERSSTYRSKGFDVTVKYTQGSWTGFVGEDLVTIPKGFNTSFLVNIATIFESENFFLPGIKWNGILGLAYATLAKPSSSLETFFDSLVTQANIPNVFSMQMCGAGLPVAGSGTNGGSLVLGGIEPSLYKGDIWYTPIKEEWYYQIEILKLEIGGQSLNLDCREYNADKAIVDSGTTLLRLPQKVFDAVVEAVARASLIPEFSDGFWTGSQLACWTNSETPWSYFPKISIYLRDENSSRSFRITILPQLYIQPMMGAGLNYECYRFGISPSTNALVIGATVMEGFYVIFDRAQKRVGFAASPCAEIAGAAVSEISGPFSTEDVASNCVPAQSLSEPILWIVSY
soluble human BACE1 catalytic domain, sequence (P56817 75-416): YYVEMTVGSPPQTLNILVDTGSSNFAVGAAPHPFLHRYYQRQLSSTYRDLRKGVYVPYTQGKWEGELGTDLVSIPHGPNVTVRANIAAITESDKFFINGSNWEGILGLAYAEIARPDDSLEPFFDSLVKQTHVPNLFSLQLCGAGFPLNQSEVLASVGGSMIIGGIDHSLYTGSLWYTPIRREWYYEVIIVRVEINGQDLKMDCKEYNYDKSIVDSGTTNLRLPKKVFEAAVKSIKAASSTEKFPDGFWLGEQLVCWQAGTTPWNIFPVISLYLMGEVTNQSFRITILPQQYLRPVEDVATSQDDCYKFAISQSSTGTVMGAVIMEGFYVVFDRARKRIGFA

For `C[C@@]1(c2cc(NC(=O)c3ccc(Cl)cn3)ccc2F)CS(=O)(=O)C2(CC2)C(=N)N1` [Example 1], the Ki was 1.6 nM in assay [1] and 0.4 nM in assay [2].
In the case of `C[C@@]1(c2cc([N+](=O)[O-])ccc2F)CS(=O)(=O)C2(CCCC2)C(=N)N1`, in assay [1], the inhibition at 1 µM was 44%. Besides, the Ki in assay [2] was 734 nM.
Regarding `C[C@@]1(c2cc(NC(=O)c3ccc(F)cn3)ccc2F)CS(=O)(=O)C2(CC2)C(=N)N1` [Example 3], the Ki in assay [1] is 5.5 nM; in assay [2] it was 0.9 nM.
For the compound `C[C@@]1(c2sc(-c3cccc(C#N)c3)cc2Cl)CS(=O)(=O)C2(CCC2)C(=N)N1` [Example 61], the Ki is 35.6 nM in assay [1] and less than 20 nM in assay [2].
As to `COc1cnc(C(=O)Nc2ccc(F)c([C@]3(C)CS(=O)(=O)C4(CCCCC4)C(=N)N3)c2)cn1` [Example 27], the Ki is 36 nM in assay [1] and less than 50 nM in assay [2].
Regarding `C[C@@]1(c2sc(C#CC3CCCC3)cc2Cl)CS(=O)(=O)C2(CCC2)C(=N)N1` [Example 77b], the results for the Ki in assay [1] and in assay [2] were 110 nM and less than 50 nM, respectively.
`COc1cnc(C(=O)Nc2ccc(F)c([C@]3(C)CS(=O)(=O)C4(CCC4)C(=N)N3)c2)cn1` [Example 7]: the results for the inhibitory constant (Ki) in assay [1] and in assay [2] were 11.7 nM and less than 50 nM, respectively.
Take `C[C@@]1(c2cc(NC(=O)c3ccc(Cl)cn3)ccc2F)CS(=O)(=O)C2(CCC2)C(=N)N1` [Example 6]: the Ki in assay [1] is 8 nM; in assay [2], 1.9 nM.
As to `C[C@@]1(c2sc(Br)cc2Cl)CS(=O)(=O)C2(CCCCC2)C(=N)N1`, the Ki in assay [1] was 2610 nM; in assay [2] it was 715 nM.
For `Cc1cccc(NC(=O)c2cc(Cl)c([C@]3(C)CS(=O)(=O)C4(CC4)C(=N)N3)s2)n1` [Example 79d] the same measures were 30 nM and less than 20 nM.
For `COc1ccc(C(=O)Nc2ccc(F)c([C@]3(C)CS(=O)(=O)[C@@]4(CCOC4)C(=N)N3)c2)nc1` [Example 63a] the same measures were 24.2 nM and less than 20 nM.
For the compound `C[C@@]1(c2sc(-c3cccc(-c4nnco4)c3)cc2Cl)CS(=O)(=O)C2(CCC2)C(=N)N1` [Example 61a], the Ki in assay [1] was 18.6 nM; in assay [2] it was less than 50 nM.
As to `C[C@@]1(c2cc(NC(=O)c3ccc(C#N)cn3)ccc2F)CS(=O)(=O)[C@]2(CCOC2)C(=N)N1` [Example 62e], the Ki in assay [1] is 6.1 nM; in assay [2] it was less than 20 nM.
For `C[C@@]1(c2sc(C(=O)Nc3cccc(Cl)n3)cc2Cl)CS(=O)(=O)C2(CC2)C(=N)N1` [Example 79b], the Ki is 17 nM in assay [1] and 4 nM in assay [2].
For `C[C@@]1(c2cc(NC(=O)c3ccc(C(F)(F)F)cn3)ccc2F)CS(=O)(=O)C2(CCCC2)C(=N)N1` [Example 14] the same measures were 2.2 nM and 2.1 nM.
In the case of `C[C@@]1(c2sc(-c3ccnc(-c4ccoc4)c3)cc2Cl)CS(=O)(=O)[C@]2(CCOC2)C(=N)N1` [Example 62j], the Ki in assay [1] is 296 nM; in assay [2], less than 50 nM.
On to `COc1ccc(C(=O)Nc2ccc(F)c([C@]3(C)CS(=O)(=O)C4(CCCCC4)C(=N)N3)c2)nc1` [Example 26], for which the figures for the Ki in assay [1] and in assay [2] were 37 nM and less than 20 nM, respectively.
For `C[C@@]1(c2sc(-c3cccc(-c4nnco4)c3)cc2Cl)CS(=O)(=O)C2(CCCCC2)C(=N)N1` [Example 47a], the Ki was 35.9 nM in assay [1] and less than 50 nM in assay [2].
With `C[C@@]1(c2cc(NC(=O)c3ccc(C(F)(F)F)cn3)ccc2F)CS(=O)(=O)[C@]2(CCOC2)C(=N)N1` [Example 62d], the Ki is 17 nM in assay [1] and less than 50 nM in assay [2].
For `C[C@@]1(c2cc([N+](=O)[O-])ccc2F)CS(=O)(=O)C2(CCC2)C(=N)N1` the same measures were 3630 nM and 3200 nM.
Regarding `C[C@@]1(c2cc(Br)ccc2F)CS(=O)(=O)C2(CCCC2)C(=N)N1`, the inhibition at 1 µM in assay [1] amounted to 42%. Also, in assay [2], the Ki is 935 nM.
`COc1cccc(NC(=O)c2cc(Cl)c([C@]3(C)CS(=O)(=O)C4(CC4)C(=N)N3)s2)n1` [Example 79a]: the Ki in assay [1] was 74 nM; in assay [2], less than 20 nM.

One may read the Ki as the dissociation constant of the complex between target and ligand, obtained from inhibition or displacement.
